In patent US20250090565A1, “Compositions and Methods for Treating Bleeding and Bleeding Disorders” (YewSavin, Inc., priority 2021, published 2025):
“Also recorded” adds a separate entry of the source.

Key:
FVIII-deficient plasma = test: Thrombin generation assay (TGA) in FVIII-deficient plasma; assay type: biochemical, human; conditions: for thrombin generation ETP dependence on concentration: 0.01 mg/ml, 0.1 mg/ml, and 0.4 mg/ml in FVIII-deficient plasma
Source text: Thrombin generation is regarded as a significant indicator of the efficiency of blood clotting. Therefore, the thrombin generation assay (“TGA”) can be used as a proxy to estimate overall blood clotting efficiency of factor proteins and others agents from observing the clotting of plasma samples. The thrombin generation experiments were run using a microtiter plate fluorometer. Solvent systems consisting of a buffer, a fluorogenic substrate, and eight candidate compounds in inert solvents were added to pre-warmed citrated FVIII-deficient plasma along with tissue factor. The clotting reactions in the plasma-compound mixtures were initiated by adding calcium chloride solution to all the samples, and the fluorescence measurements recorded by the fluorimeter were compared against negative control (FVIII-deficient plasma without compounds or solvent system), vehicle control (FVIII-deficient plasma with solvent system only), and positive control (FVIII-deficient plasma mixed with regular plasma) reference measurements.
Each of the eight candidate compounds was tested via the TGA at three different concentrations.

[1] = tested on: ex vivo Hemophilia A human blood; test: Ca+2ACT whole blood coagulation time test, Hemophilia A human blood; assay type: biochemical; conditions: for mean clotting time: Hemophilia A blood specimens
Source text: (§1) While there are standardized tests such as Activated Partial Thromboplastin Time (“aPTT”) and Partial Thromboplastin Time (“PPT”) that measure blood clotting times (i.e., coagulation times), none of these tests are amenable to testing a small molecule drug, mainly due to the fact that the clotting agents added in these tests completely overcome the effect of the drug. A Calcium +2 ion Activated Coagulation Time test (“Ca+2ACT test”) was developed for measuring coagulation times that is devoid of the activators, thereby allowing drug candidates to be tested and verify their effects. The results described below use whole blood clotting assay and measure the coagulation of blood (i.e., blood's ability to clot), specifically, how much time is required for the clotting.
In this study, calcium chloride (“CaCl2”), a standard coagulating compound, is used as a control to compare the efficacy of various test samples. DMA is used as vehicle for various test samples. In a first study, a freshly prepared 5 μl test sample in DMA is added to a 100 μl blood specimen and then incubated in incubation slot of KC1 Delta machine Correlated Stago-Startmax for 37° C. for 3 min. For the control sample, 50 μl of CaCl2 solution is added, and timer started, to a 100 μl blood specimen to provide a baseline against the test sample. A stop watch, and automated electronic machine display, is used to measure the coagulation time in connection with an electronic signal provided the testing machine. Fresh citrated blood specimen from six healthy volunteers and six hemophilia patients, with initial standard citrate concentration in the collected blood of 3.5%, and “in cuvette” calcium +2 activation (by addition of CaCl2 solution) was obtained.
In this study, the effect of drug is measured by coagulation time of blood using the Ca+2ACT test, in presence of variable concentration of the drug in the test sample. The efficacy tests used 5 microliter of 40 mg/mL solution added to 155 microliter final volume in the clotting cuvette, corresponding to […] of the clotting mixture. For the dose dependence studies, we examined three persons. The twelve concentrations range chosen is 5 microliter of 0.05 mg/mL to 40 mg/mL, the vehicle being zero point concentration. This corresponds to mimimum concentration in the study of 1.66 microgram/mL or 1.66 ppm of the drug, not withstanding Vehicle Control of zero. […] FIG. 45 illustrates coagulation time versus concentration for the candidate molecule 1 for blood specimens from a second patient. FIG. 46 illustrates coagulation time versus concentration for the candidate molecule 1 for blood specimens from a third patient.
As discussed above, the effect is measured by coagulation time of blood using the Ca+2ACT test, in presence of variable concentration of the drug. Initial efficacy tests used 5 microliters of 40 mg/mL solution added to 155 microliter final volume in the clotting cuvette, corresponding to 1.29 mg/1000 mg of the clotting mixture. More recent tests used 10E-2 to 10E-22 as concentration range with 1E-2 interval. Samples were tested no later than eight hours after collection, and preferably, no later than four hours after collection. Often times, with very low and zero concentrations of clotting agents, although the instrument recorded a clotting time, the samples were fluid and partially coagulated at best. However, good fit was obtained at 1E-18 and good statistical difference was obtained at 1E-16, with significant statistical p-values at 10E-8 and higher concentrations, a very good range for drug design. […] The dose dependence study was performed using NDA solvent, and water in case of Eloctate™.

[2] = tested on: Factor VIII Deficient Mice; test: Fibrin (fibrinogen) content of blood of Factor VIII deficient mice; assay type: in vivo; conditions: FVIII deficient mice, blood taken at end of experiment
Method: (§2) The purpose of this experiment was to evaluate the effectiveness of chalcones on tail bleeding time in mice. […] A distal 10 mm segment of each mouse's tail was amputated with a scalpel and the remaining tail stump was immediately immersed in a 50 mL Falcon tube containing isotonic saline pre-warmed in a water bath to 37° C. Each mouse was allowed to bleed freely for 20 minutes even if bleeding ceased, in order to detect any re-bleeding. Bleeding time was determined using a stopwatch. At the end of the 20 minutes, the experiment was terminated to avoid lethality. All animals were then bled additionally to obtain a sufficient amount of blood for determining fibrinogen content. Organs were collected, weighed and preserved for future assays.

heparinized rabbit blood = test: Heparinized clotting test (in vitro); assay type: biochemical
Method: The purpose of this experiment was to deduce a potential mechanism of action for chalcones in decreasing blood clotting and bleeding time. First, rabbit blood (200 μL) was added to the anticoagulant drug heparin (1.25 IU) in Eppendorf Tubes®. […] In untreated blood that is still inside a human or an animal, heparan sulfate that is found on cellular surfaces plays an equivalent role to heparin by forming a heparan-antithrombin complex and activating antithrombin.

[3] = tested on: ex vivo healthy human blood; test: Ca+2ACT whole blood coagulation time test, healthy human blood; assay type: biochemical; conditions: 1 mg/ml, healthy blood specimens; vehicle control 208.87 seconds
Source text: as §1
In this study, calcium chloride (“CaCl2”), a standard coagulating compound, is used as a control to compare the efficacy of various test samples. DMA is used as vehicle for various test samples. In a first study, a freshly prepared 5 μl test sample in DMA is added to a 100 μl blood specimen and then incubated in incubation slot of KC1 Delta machine Correlated Stago-Startmax for 37° C. for 3 min. For the control sample, 50 μl of CaCl2 solution is added, and timer started, to a 100 μl blood specimen to provide a baseline against the test sample. […]

[4] = tested on: Factor VIII Deficient Mice; test: Tail bleeding assay in FVIII-KO mice; assay type: in vivo
Method: as §2

[5] = Bodyweight of Factor VIII deficient mice; assay type: in vivo; conditions: FVIII deficient mice, mean (spread)
normal plasma = test: Thrombin generation assay (TGA) in normal plasma; assay type: biochemical, human
Wistar rats = test: Ex vivo capillary clotting assay in Wistar rats; conditions: ex vivo oral, compared with chromatography fractions (FIG. 3)
Source text: During the bioassay-guided fractionation process, blood clotting time was used as a screen for active compounds, and a particular class of compounds known as chalcones was discovered to induce blood coagulation. FIG. 3 illustrates a sample result from an ex vivo capillary clotting assay in Wistar rats in accordance with various embodiments of the invention as described in further detail below.

[6] = tested on: Factor VIII Deficient Mice; test: Capillary clotting time in Factor VIII deficient mice; assay type: in vivo; conditions: FVIII deficient mice; HF-2021a oral once daily for seven days; FVIII intravenous

Compound: 4-methoxyphenyl-3-(2,4-dimethoxyphenyl)-1-oxo-2-propene [HF-2021f]
- thrombin generation ETP dependence on concentration (FVIII-deficient plasma): observed dose dependence

Compound: O=C(/C=C/c1ccc(O)cc1)c1ccc(O)cc1O [HF-2021c, (E)-1-(2,4-dihydroxyphenyl)-3-(4-hydroxyphenyl)prop-2-en-1-one]
- thrombin generation ETP dependence on concentration (FVIII-deficient plasma): observed dose dependence

Compound: O=C(C=Cc1ccc2c(c1)OCO2)c1ccccc1 [HF-2022a, 3-(1,3-Benzodioxol-5-yl)-1-phenyl-2-propen-1-one]
- thrombin generation ETP dependence on concentration (FVIII-deficient plasma): observed dose dependence

Compound: COc1ccc(C=CC(=O)c2c(O)cc(O)cc2O)cc1 [ISK-CH, Iso-Sakutanetin Chalcone]
- mean clotting time ([1]; 1×10^−7 mg/mL, vehicle control 200.87 seconds): 116.4 s

Compound: O=C(/C=C/c1ccc(O)cc1)c1c(O)cc(O)cc1O [HF-2021g, (E)-3-(4-hydroxyphenyl)-1-(2,4,6-trihydroxyphenyl)prop-2-en-1-one]
- thrombin generation ETP dependence on concentration (FVIII-deficient plasma): observed dose dependence

Compound: COc1cc(O)c(C(=O)C=Cc2ccc(O)cc2)c(OC)c1OC [HF-2021a, 1-(6-Hydroxy-2,3,4-trimethoxyphenyl)-3-(4-hydroxy-phenyl)prop-2-en-1-one]
- Fibrin content (mg/dL) [2]: 281.2 (44.1) mg/dL
- blood clotting time versus concentration (heparinized rabbit blood; rabbit blood 200 μL + heparin 1.25 IU, varying concentrations in DMSO (FIG. 7)): dose dependence relationship was observed
- mean clotting time [3]: 74.12 s
- Optical Density ([4]; FVIII deficient mice, tail bleeding experiment): 0.5 (0.1)
- tail bleeding time (in words) ([4]; FVIII-KO mice, repeated oral administrations, versus standard FVIII therapy (FIG. 4)): outperforming the standard FVIII therapy; also recorded: significantly improved
- Survival Rate ([4]; after 48 hours): 3/5 after
- Bleeding Time (Seconds) ([4]; tail amputation 10 mm, saline 37° C., HF-2021a oral once daily for seven days, FVIII intravenous): 41.8 (9.7) Seconds
- Bodyweight (Day 0) ([5]; Day 0 (baseline)): 17.4 (1.4)
- Bodyweight (Day 7) ([5]; Day 7): 18.8 (1.1)
- thrombin generation curves versus concentration (normal plasma; normal plasma (FIG. 20)): dose dependent response
- thrombin generation ETP versus concentration (normal plasma; normal plasma (FIG. 21)): dose dependent response is also observed
- thrombin generation ETP dependence on concentration (FVIII-deficient plasma): observed dose dependence
- effect on thrombin concentration and ETP compared with HEMLIBRA (FVIII-deficient plasma; 0.1 mg/ml versus any of the concentrations of HEMLIBRA (FIG. 28, 29)): comparable effects
- thrombin response compared with FVIII-deficient plasma containing 10% of normal FVIII (FVIII-deficient plasma; 0.4 mg/ml (FIG. 18, 19)): superior to that of 10% of normal FVIII activity
- effect on thrombin concentration and ETP compared with HEMLIBRA (FVIII-deficient plasma; 0.4 mg/ml versus highest tested HEMLIBRA concentration 75 μg/ml (FIG. 28, 29)): slightly larger effect
- thrombin concentration and ETP, combined with ELOCTATE (FVIII-deficient plasma; all tested concentrations, plasma of a patient who had taken ELOCTATE (FIG. 34, 35)): greater thrombin concentrations and ETPs than ELOCTATE® by itself
- effect on capillary clotting time (Wistar rats): nearly identical to that of the chromatography fractions
- mean clotting time ([1]; 1 mg/mL, vehicle control 228.92 seconds): 64.92 s
- coagulation time versus concentration ([1]; blood specimens of three patients, twelve concentrations (FIG. 44-46)): clear dependency
- Capillary Clotting Time (Seconds) [6]: 44.6 (13.2) Seconds

Compound: CC(C)=CCOc1ccc(/C=C/C(=O)c2ccc(OCC=C(C)C)cc2OCC(=O)O)cc1 [HF-2021e, 2-[5-(3-methylbut-2-enoxy)-2-[(E)-3-[4-(3-methylbut-2-enoxy)phenyl]prop-2-enoyl]phenoxy]acetic acid]
- thrombin generation ETP dependence on concentration (FVIII-deficient plasma): observed dose dependence
- thrombin concentration and ETP, combined dosing with HEMLIBRA (FVIII-deficient plasma; 0.1 mg/mL combined with 25, 50, 75 μg/ml HEMLIBRA, versus each drug alone (FIG. 32, 33)): greater thrombin concentrations and ETPs than any individual dosage
- thrombin concentration and ETP, combined dosing with HEMLIBRA (FVIII-deficient plasma; 0.1 mg/ml + 25 μg/ml HEMLIBRA versus 75 μg/ml HEMLIBRA alone): slightly more thrombin concentration and ETP
- possible cut of the required dose of HEMLIBRA on concurrent use (FVIII-deficient plasma; 0.1 mg/ml + 25 μg/ml HEMLIBRA, roughly same thrombin generation as 75 μg/ml): 67%
- effect on thrombin concentration and ETP compared with HEMLIBRA (FVIII-deficient plasma; 0.4 mg/ml versus lowest tested HEMLIBRA concentration 25 μg/ml (FIG. 30, 31)): slightly lower effect
- mean clotting time ([1]; 0.1 mg/mL, vehicle control 247.61 seconds): 118.92 s
- coagulation times compared with Eloctate ([1]; HF2021e in NDA, Eloctate in water (FIG. 43)): higher than the coagulation times for Eloctate™
- EC50 compared with Eloctate ([1]; concentration for 50% of the total effect on coagulation time (FIG. 43)): lower than for Eloctate™
- coagulation time dependence on dose ([1]; dose dependence study in NDA solvent (FIG. 43)): linear coagulation time dependence

Compound: COc1ccc(/C=C/C(=O)c2c(O)cc(O[C@@H]3O[C@H](CO[C@@H]4O[C@@H](C)[C@H](O)[C@@H](O)[C@H]4O)[C@@H](O)[C@H](O)[C@H]3O)cc2OC)cc1O [HF-2021d, (E)-3-(3-hydroxy-4-methoxyphenyl)-1-[2-hydroxy-6-methoxy-4-[(2S,3R,4S,5S,6R)-3,4,5-trihydroxy-6-[[(2R,3R,4R,5R,6S) -3,4,5-trihydroxy-6-methyloxan-2-yl]oxymethyl]oxan-2-yl]oxyphenyl]prop-2-en-1-one]
- thrombin generation ETP dependence on concentration (FVIII-deficient plasma): observed dose dependence

Compound: COc1ccc(C=CC(=O)c2c(O)cc(OC)cc2OC)cc1 [HF-2021b, 1-(2-hydroxy-4,6-dimethoxyphenyl)-3-(4-methoxyphenyl)prop-2-en-1-one]
- activity in the heparinized blood assay (heparinized rabbit blood; heparinized blood): active blood clotting agent
- thrombin generation ETP dependence on concentration (FVIII-deficient plasma): observed dose dependence
